# ChEMBL document CHEMBL4325859, “Research advances on anticancer activities of matrine and its derivatives: An updated overview” (Eur J Med Chem, 2019)
# Legend:
# KYSE-150 cell line = experiment: Antiproliferative activity against human KYSE-150 cells after 24 hrs by MTT assay; type: functional, cell-based; conditions: KYSE-150, 24 h
# BXPC-3 [1] = experiment: Induction of apoptosis in human BxPC3 cells at 0.75 mg/ml by flow cytometry (reference value: 2.81%); type: functional
# [2] = Antiproliferative activity against human 95-D cells at 2 g/L after 48 hrs by MTT assay relative to control; type: functional
# DU-145 = experiment: Growth inhibition of human DU145 cells at 6 g/L after 72 hrs relative to control; type: functional; conditions: DU-145, 72 h, read-out: GI
# HeLa [3] = experiment: Induction of apoptosis in human HeLa cells at 25 ug/ml after 48 hrs by Annexin V-FITC/propidium iodide staining based flow cytometry relative to control; type: functional
# [4] = Growth inhibition of human GRC1 cells at 0.8 g/L after 96 hrs by MTT assay relative to control; type: functional; conditions: read-out: GI
# HepG2 [5] = experiment: Antiproliferative activity against human HepG2 cells at 1 mg/ml after 48 hrs relative to control; type: functional
# HT-29 [6] = experiment: Growth inhibition of human HT-29 cells at 1 mg/ml by MTT assay relative to control; type: functional; conditions: read-out: GI
# A549 = experiment: Antiproliferative activity against human A549 cells at 1.5 g/L after 12 to 48 hrs by MTT assay relative to control; type: functional
# SMMC-7721 [7] = experiment: Antiproliferative activity against human SMMC7721 cells at 100 ug/ml after 72 hrs by MTT assay relative to control; type: functional
# [8] = Growth inhibition of human GRC1 cells at 0.5 g/L after 24 hrs by MTT assay relative to control; type: functional; conditions: read-out: GI
# BXPC-3 [9] = experiment: Antiproliferative activity against human BxPC3 cells after 72 hrs by MTT assay; type: functional, cell-based; conditions: BXPC-3, 72 h
# HT-29 [10] = experiment: Growth inhibition of human HT-29 cells at 32 ml/L after 24 hrs by MTT assay relative to control; type: functional
# MG-63 = experiment: Growth inhibition of human MG63 cells after 48 hrs by MTT assay; type: functional, cell-based; conditions: MG-63, 48 h
# [11] = Growth inhibition of human MM1R cells after 24 hrs; type: functional; conditions: MM.1R
# HT-29 [12] = experiment: Synergistic growth inhibition of human HT-29 cells at 1 mg/ml cotreated with 5 ug/ml irinotecan by MTT assay relative to control; type: functional
# HT-29 [13] = experiment: Growth inhibition of human HT-29 cells at 16 ml/L after 48 hrs by MTT assay relative to control; type: functional
# RPMI-8226 = experiment: Induction of apoptosis in human RPMI8226 cells at 1500 mg/L after 48 hrs by Annexin V/propidium iodide staining based flow cytometry (reference value: 3.02 +/- 1.19%); type: functional
# U2OS = experiment: Growth inhibition of human U2OS cells at 3.2 mg/ml after 48 hrs by MTT assay relative to control; type: functional; conditions: read-out: GI
# PANC-1 [14] = experiment: Induction of apoptosis in human PANC1 cells at 1.25 mg/ml by flow cytometry (reference value: 4.13%); type: functional
# NIH3T3 = experiment: Antiproliferative activity against mouse NIH/3T3 cells after 72 hrs by MTT assay; type: cell-based; conditions: NIH3T3, 72 h
# MM1.S = experiment: Growth inhibition of human MM1S cells after 24 hrs; type: functional, cell-based
# HT-29 [15] = experiment: Growth inhibition of human HT-29 cells at 32 ml/L after 36 hrs by MTT assay relative to control; type: functional
# [16] = Growth inhibition of human GRC1 cells at 0.3 g/L after 72 hrs by MTT assay relative to control; type: functional; conditions: read-out: GI
# HT-29 [17] = experiment: Growth inhibition of human HT-29 cells at 4 ml/L after 24 hrs by MTT assay relative to control; type: functional
# PANC-1 [18] = experiment: Antiproliferative activity against human PANC1 cells by MTT assay; type: functional, cell-based
# HeLa [19] = experiment: Induction of apoptosis in human HeLa cells at 100 ug/ml after 48 hrs by Annexin V-FITC/propidium iodide staining based flow cytometry relative to control; type: functional
# SAOS-2 = experiment: Growth inhibition of human Saos2 cells at 0.8 mg/ml after 48 hrs by MTT assay relative to control; type: functional; conditions: SAOS-2, 48 h, read-out: GI
# [20] = Growth inhibition of human MM1R cells at […] after 24 hrs relative to control; type: functional; conditions: MM.1R, read-out: GI
# U-937 = experiment: Induction of apoptosis in human U937 cells after 24 hrs by Annexin V-FITC/propidium iodide staining based flow cytometry relative to control; type: functional
# HepG2 [21] = experiment: Antiproliferative activity against human HepG2 cells at 1 mg/ml after 48 hrs by MTT assay relative to control; type: functional
# [22] = Growth inhibition of human GRC1 cells at 0.3 g/L after 24 hrs by MTT assay relative to control; type: functional; conditions: read-out: GI
# PANC-1 [23] = experiment: Induction of apoptosis in human PANC1 cells at 0.25 mg/ml by flow cytometry (reference value: 4.13%); type: functional
# M21 [24] = experiment: Induction of apoptosis in human M21 cells at 0.4 mg/ml after 48 hrs by Annexin V-FITC/propidium iodide staining based flow cytometry relative to control; type: functional
# Bel-7402 = experiment: Antiproliferative activity against human Bel7402 cells after 48 hrs by MTT assay; type: functional, cell-based; conditions: Bel-7402, 48 h
# [25] = Antiproliferative activity against human GBC-SD cells assessed as cell survival at 1 mmol/L up to 72 hrs by MTT assay (reference value: 100%); type: functional; conditions: read-out: Survival
# SMMC-7721 [26] = experiment: Antiproliferative activity against human SMMC7721 cells at 200 ug/ml after 72 hrs by MTT assay relative to control; type: functional
# HT-29 [27] = experiment: Growth inhibition of human HT-29 cells at 16 ml/L after 24 hrs by MTT assay relative to control; type: functional
# [28] = Growth inhibition of human GRC1 cells at 1 g/L after 48 hrs by MTT assay relative to control; type: functional; conditions: read-out: GI
# 4T1 = experiment: Antiproliferative activity against mouse 4T1 cells after 48 hrs by MTT assay; type: functional, cell-based; conditions: 4T1, 48 h
# D341 cell line = experiment: Induction of apoptosis in human D341 cells at 0.5 to 2 mg/ml after 24 to 72 hrs by Annexin V-FITC/propidium iodide staining based flow cytometry (reference value: 5.74 +/- 0.09%); type: functional
# HT-29 [29] = experiment: Growth inhibition of human HT-29 cells at 2 ml/L after 48 hrs by MTT assay relative to control; type: functional
# [30] = Growth inhibition of human GRC1 cells at 1.5 g/L after 48 hrs by MTT assay relative to control; type: functional; conditions: read-out: GI
# UMR108 = experiment: Growth inhibition of rat UMR108 cells assessed as cell proliferation at 1.5 mg/ml after 48 hrs by MTT assay (reference value: 0.404 +/- 0.008%); type: functional; conditions: UMR108, 48 h, read-out: Activity
# M21 [31] = experiment: Growth inhibition of human M21 cells after 48 hrs by MTT assay; type: functional, cell-based; conditions: M21, 48 h
# HOS = experiment: Growth inhibition of human HOS cells at 0.8 mg/ml after 48 hrs by MTT assay relative to control; type: functional; conditions: read-out: GI
smiles,measurement,setting,value
O=C1CCC[C@@H]2[C@H]3CCCN4CCC[C@@H](CN12)[C@@H]34 [MATRINE],IC50,KYSE-150 cell line,7.82 mM
same,Activity,BXPC-3 [1],48.83%
same,Activity,[2],20%
same,inhibition of growth at 6000 µg/mL,DU-145,90%
same,Activity,HeLa [3],8.91%
same,inhibition of growth at 800 µg/mL,[4],36.2%
same,Activity,HepG2 [5],48.39%
same,inhibition of growth at 1000 µg/mL,HT-29 [6],35.9%
same,Activity,A549,30%
same,Activity,SMMC-7721 [7],55.1%
same,inhibition of growth at 500 µg/mL,[8],11.5%
same,IC50,BXPC-3 [9],2.94 mM
same,growth inhibition (GI),HT-29 [10],71.62%
same,IC50,MG-63,7.05 mM
same,IC50,[11],5.4 mM
same,growth inhibition (GI),HT-29 [12],87.61%
same,growth inhibition (GI),HT-29 [13],75.75%
same,Activity,RPMI-8226,31.1%
same,inhibition of growth at 3200 µg/mL,U2OS,77%
same,Activity,PANC-1 [14],42.55%
same,IC50,NIH3T3,> 8.06 mM
same,IC50,MM1.S,4.95 mM
same,growth inhibition (GI),HT-29 [15],77.14%
same,inhibition of growth at 300 µg/mL,[16],14.9%
same,growth inhibition (GI),HT-29 [17],17.88%
same,IC50,PANC-1 [18],0.0286 mM
same,Activity,HeLa [19],38.41%
same,inhibition of growth at 800 µg/mL,SAOS-2,10%
same,inhibition of growth at 2 g/mL,[20],74%
same,Activity,U-937,37.2%
same,Activity,HepG2 [21],14.81%
same,inhibition of growth at 300 µg/mL,[22],6.3%
same,Activity,PANC-1 [23],8.71%
same,Activity,M21 [24],34.8%
same,IC50,Bel-7402,3.22 mM
same,viability at 1000 µM,[25],72.1%
same,Activity,SMMC-7721 [26],77.4%
same,growth inhibition (GI),HT-29 [27],59.35%
same,inhibition of growth at 1000 µg/mL,[28],25.4%
same,IC50,4T1,1110 µg/mL
same,Activity,D341 cell line,56.1%
same,growth inhibition (GI),HT-29 [29],29.73%
same,inhibition of growth at 1500 µg/mL,[30],32%
same,growth at 1500 µg/mL,UMR108,0.205%
same,IC50,M21 [31],3.1 mM
same,inhibition of growth at 800 µg/mL,HOS,10%
